The first test deals with Serum Phospholipid. Briefly: Hypolipidemic effect: serum phospholipid. The test is classed as in vivo, rat (Wistar-strain). As to conditions: 100 mg/kg oral, 2 h; control 79 ± 2 (compounds 2-12), 72 ± 2 (compounds 15-29). On the procedure: (§1) The test drugs suspended in 0.5% aqueous C.M.C. solution were orally administered to groups of 8 Wistar-strain male rats (weighing about 185 g) which were fasted for 18 to 20 hours. 2 hours later, the serum was obtained in the same manner described in (2). Serum triglyceride was measured according to the GPO-p-chlorophenol colorimetric determination [Richard W. Spayd et al., Clinical Chemistry, 24, 1343 (1978)], serum free fatty acid was measured according to the Acyl CoA Synthetase-Acyl CoA Oxidase method [Shimizu S. et al., Biochem. Biophys. Res. Commun., 91, 108 (1979)], free fatty acid was measured according to the enzymatic method [Charles C. Allain et al., Clin. Chem., 20, No. 4, 470 (1974)] and total cholesterol was measured according to the enzymatic method [Takayama M. et al., Clinica Chimica Acta, 79, 93 (1977)]. Asterisks indicate significant differences (*: p<0.05, **: p<00.01, ***: p<0.001) from the control.
As for `Cc1cccc(CN2C(=O)NC(=O)C2=O)c1` [compound 25, 1-(3-methylbenzyl)imidazolidinetrione], the “Serum Phospholipid Level” value stood at 57 ± 2 mg/dL.
As for `Cc1ccc(CN2C(=O)NC(=O)C2=O)cc1` [compound 26, 1-(4-methylbenzyl)imidazolidinetrione], the “Serum Phospholipid Level” value amounted to 58 ± 1 mg/dL.
`COc1ccc(CN2C(=O)NC(=O)C2=O)cc1` [compound 29, 1-(4-methoxybenzyl)imidazolidinetrione]: the “Serum Phospholipid Level” value is 58 ± 1 mg/dL.

The test is the same for the next values; noted with them: Rattus norvegicus; 100 mg/kg oral, 2 h; vs control; read-out: Serum Phospholipid Decrease.
Turning to `Cc1cccc(CN2C(=O)NC(=O)C2=O)c1` [compound 25, 1-(3-methylbenzyl)imidazolidinetrione], the inhibition in vivo at 100 mg/kg came out at 20.8%.
For the compound `Cc1ccc(CN2C(=O)NC(=O)C2=O)cc1` [compound 26, 1-(4-methylbenzyl)imidazolidinetrione], the inhibition in vivo at 100 mg/kg came to 19.4%.
Same read-out and setting: the result for `COc1ccc(CN2C(=O)NC(=O)C2=O)cc1` [compound 29, 1-(4-methoxybenzyl)imidazolidinetrione] reads 19.4%.

A further test concerns Serum Triglyceride. Briefly: Hypolipidemic effect: serum triglyceride. The test is classed as in vivo, rat (Wistar-strain). Conditions: 100 mg/kg oral, 2 h; control 65 ± 5 (compounds 2-12), 57 ± 4 (compounds 15-29). On the procedure:
as §1
With `Cc1cccc(CN2C(=O)NC(=O)C2=O)c1` [compound 25, 1-(3-methylbenzyl)imidazolidinetrione], the “Serum Triglyceride Level” value was 33 ± 2 mg/dL.
In the case of `Cc1ccc(CN2C(=O)NC(=O)C2=O)cc1` [compound 26, 1-(4-methylbenzyl)imidazolidinetrione], the “Serum Triglyceride Level” value is 37 ± 1 mg/dL.
As to `COc1ccc(CN2C(=O)NC(=O)C2=O)cc1` [compound 29, 1-(4-methoxybenzyl)imidazolidinetrione], the “Serum Triglyceride Level” value stood at 43 ± 3 mg/dL.

Staying with this test, now noted: Rattus norvegicus; 100 mg/kg oral, 2 h; vs control; read-out: Serum Triglyceride Decrease.
On to `Cc1cccc(CN2C(=O)NC(=O)C2=O)c1` [compound 25, 1-(3-methylbenzyl)imidazolidinetrione], for which the inhibition in vivo at 100 mg/kg amounted to 42.1%.
Consider `Cc1ccc(CN2C(=O)NC(=O)C2=O)cc1` [compound 26, 1-(4-methylbenzyl)imidazolidinetrione], for which the inhibition in vivo at 100 mg/kg came to 35.1%.
The same measure, in the same setting: under `COc1ccc(CN2C(=O)NC(=O)C2=O)cc1` [compound 29, 1-(4-methoxybenzyl)imidazolidinetrione] stands 24.6%.

The next test has as its system Blood Glucose. The test can be described thus: Hypoglycemic effect in glucose-loaded fasted rats (blood glucose). The test is classed as in vivo, rat (Wistar-strain). Conditions: Rattus norvegicus; Table 2; 100 mg/kg oral, 2 h; vs control; read-out: Blood Glucose Decrease. On the procedure:
Groups of 7 Wistar-strain male rats (weighing about 200 g) which were fasted for 18 hours were used for measurement of hypoglycemic effect according to the modified method by Dulin et al. [Dulin, W. L. et al., Proc. Soc. Expl. Med., 107, 245 (1961)]. That is, 0.5 ml/100 g of 20% aqueous solution of glucose was subcutaneously administered to the backs of rats to prevent a decrease in blood glucose level because of the fasting. Immediately thereafter the test drug suspended in 0.5% aqueous C.M.C. solution was orally given, and 2 hours later, the animals underwent laparotomy under pentobarbital anesthesia, then blood was drawn from the vena cava. The obtained blood sample was allowed to stand for 30 minutes to complete the coagulation and was centrifuged to obtain the serum. Blood sugar level was measured according to the mutalotase GOD method [Trinder, Ann. Clin. Biochem., 6, 24 […]]. Asterisks indicate significant differences (*: p<0.05, **: p<0.01, ***: p<0.001) from the control.
Take `CC(C)CN1C(=O)NC(=O)C1=O` [compound 5, 1-iso-butylimidazolidinetrione]: the inhibition in vivo at 100 mg/kg turned out to be 39.1%.
Still for that read-out and setting: under `CC(C)(C)N1C(=O)NC(=O)C1=O` [compound 6, 1-tert-butylimidazolidinetrione] stands 18%; under `CCCCCCCCCCN1C(=O)NC(=O)C1=O` [compound 9, 1-decylimidazolidinetrione], 18%; under `O=C1NC(=O)N(C2CCCC2)C1=O` [compound 10, 1-cyclopentylimidazolidinetrione], 24.8%.
Still for that read-out and setting: the result for `CCN1C(=O)C(=O)N(C2CCCC2)C1=O` [compound 13, 1-cyclopentyl-3-ethylimidazolidinetrione] reads 14.7%.

The test is the same for the next values; noted with them: Rattus norvegicus; Table 3; 100 mg/kg oral, 2 h; vs control; read-out: Blood Glucose Decrease.
Take `Cc1cccc(CN2C(=O)NC(=O)C2=O)c1` [compound 25, 1-(3-methylbenzyl)imidazolidinetrione]: the inhibition in vivo at 100 mg/kg is 13.5%.
Consider `Cc1ccc(CN2C(=O)NC(=O)C2=O)cc1` [compound 26, 1-(4-methylbenzyl)imidazolidinetrione], for which the inhibition in vivo at 100 mg/kg is 9.8%.
Regarding `COc1ccc(CN2C(=O)NC(=O)C2=O)cc1` [compound 29, 1-(4-methoxybenzyl)imidazolidinetrione], the inhibition in vivo at 100 mg/kg stood at 9.8%.

Staying with this test, now noted: Table 2; 100 mg/kg oral, 2 h; control 133 ± 6.
In the case of `CC(C)CN1C(=O)NC(=O)C1=O` [compound 5, 1-iso-butylimidazolidinetrione], the “Blood Glucose Level” value amounted to 81 ± 1 mg/dL.
On the same count and under the same terms, the result for `CC(C)(C)N1C(=O)NC(=O)C1=O` [compound 6, 1-tert-butylimidazolidinetrione] reads 109 ± 4 mg/dL; that for `CCCCCCCCCCN1C(=O)NC(=O)C1=O` [compound 9, 1-decylimidazolidinetrione], 109 ± 4 mg/dL; that for `O=C1NC(=O)N(C2CCCC2)C1=O` [compound 10, 1-cyclopentylimidazolidinetrione], 100 ± 4 mg/dL.
On the same count and under the same terms, under `CCN1C(=O)C(=O)N(C2CCCC2)C1=O` [compound 13, 1-cyclopentyl-3-ethylimidazolidinetrione] stands 116 ± 5 mg/dL.

The same test, now with this note: Table 3; 100 mg/kg oral, 2 h; control 133 ± 4.
Regarding `Cc1cccc(CN2C(=O)NC(=O)C2=O)c1` [compound 25, 1-(3-methylbenzyl)imidazolidinetrione], the “Blood Glucose Level” value came to 115 ± 3 mg/dL.
For `Cc1ccc(CN2C(=O)NC(=O)C2=O)cc1` [compound 26, 1-(4-methylbenzyl)imidazolidinetrione], the “Blood Glucose Level” value was determined as 120 ± 2 mg/dL.
Turning to `COc1ccc(CN2C(=O)NC(=O)C2=O)cc1` [compound 29, 1-(4-methoxybenzyl)imidazolidinetrione], the “Blood Glucose Level” value stood at 120 ± 2 mg/dL.

Another test concerns Total Serum Cholesterol. The test can be described thus: Hypolipidemic effect: total serum cholesterol. Conditions: 100 mg/kg oral, 2 h; control 44 ± 2 (compounds 4-12), 41 ± 1 (compounds 15-29). The test is classed as in vivo, rat (Wistar-strain). On the procedure: as §1
Regarding `Cc1cccc(CN2C(=O)NC(=O)C2=O)c1` [compound 25, 1-(3-methylbenzyl)imidazolidinetrione], the “Total Serum Cholesterol Level” value was found to be 36 ± 1 mg/dL.
The same measure, in the same setting: under `Cc1ccc(CN2C(=O)NC(=O)C2=O)cc1` [compound 26, 1-(4-methylbenzyl)imidazolidinetrione] stands 37 ± 1 mg/dL; under `COc1ccc(CN2C(=O)NC(=O)C2=O)cc1` [compound 29, 1-(4-methoxybenzyl)imidazolidinetrione], 36 ± 1 mg/dL.

Still in this test, the particulars now being: Rattus norvegicus; 100 mg/kg oral, 2 h; vs control; read-out: Total Serum Cholesterol Decrease.
Turning to `Cc1cccc(CN2C(=O)NC(=O)C2=O)c1` [compound 25, 1-(3-methylbenzyl)imidazolidinetrione], the inhibition in vivo at 100 mg/kg was 12.2%.
Regarding `Cc1ccc(CN2C(=O)NC(=O)C2=O)cc1` [compound 26, 1-(4-methylbenzyl)imidazolidinetrione], the inhibition in vivo at 100 mg/kg was 9.8%.
As to `COc1ccc(CN2C(=O)NC(=O)C2=O)cc1` [compound 29, 1-(4-methoxybenzyl)imidazolidinetrione], the inhibition in vivo at 100 mg/kg was 12.2%.

The values are drawn from patent publication US4683240A, “Pharmaceutical composition containing an imidazolidinetrione derivative or pharmaceutically acceptable salt thereof” (Nippon Zoki Pharmaceutical Co., Ltd., priority 1985, dated 1987).
